Data on six compounds can be found in patent EP0416740A2, “Novel compounds with renin-inhibiting activity” (Beecham Group p.l.c., priority 1989, dated 1991).

SMILES strings stand for the structures. Structures can show the parent of a compound that is named as a salt.

The target in the first experiment is T1, human renin (Homo sapiens, UniProt P00797).
T1 construct: from tissue; host or cells: human plasma from blood of healthy volunteers
T1 sequence (P00797 67-406): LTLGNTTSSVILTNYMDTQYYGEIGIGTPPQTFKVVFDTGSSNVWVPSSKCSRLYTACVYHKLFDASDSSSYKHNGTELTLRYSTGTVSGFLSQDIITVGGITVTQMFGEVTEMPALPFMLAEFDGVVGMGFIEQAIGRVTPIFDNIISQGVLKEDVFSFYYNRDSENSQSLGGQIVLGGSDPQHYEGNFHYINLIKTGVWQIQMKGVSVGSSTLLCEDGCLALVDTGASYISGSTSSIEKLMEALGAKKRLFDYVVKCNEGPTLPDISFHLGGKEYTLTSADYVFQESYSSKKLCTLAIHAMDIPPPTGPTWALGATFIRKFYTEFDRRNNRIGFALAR
The experiment in a line: biochemical.
Conditions: not given
The protocol:
In vitro human renin inhibition
Renin inhibitory activity was estimated as the percentage change in renin activity in human plasma in the presence and absence of compound. The source of plasma was blood taken from healthy volunteers. Renin activity was defined by the difference in angiotensin I levels between two halves of a sample, one incubated at 37^o and the other at 4^o for 2 h. Angiotensin I levels were measured using a ¹²⁵I- angiotensin I radioimmunoassay kit (NEN/Dupont, Stevenage). Results were calculated as the mean of at least two, duplicate determinations and IC₅₀ values were calculated by linear regression analysis of at least three concentrations of compound.
The compound `CC(C)CNC(=O)C[C@H](O)[C@H](CC1CCCCC1)NC(=O)[C@H](CC(C)C)NC(=O)[C@H](Cc1ccccc1)NC(=O)CC1COc2ccc[n+]([O-])c21` (stereo partly drawn) [Example E2, 2,3-Dihydro-4-oxofuro[3,2-]pyridine-3-acetyl-Phe-Leu-ACHPA isobutylamide] gave an IC50 of 21 nM.

Staying with this experiment, now noted: renin activity in human plasma; angiotensin I difference between halves incubated at 37° and 4° for 2 h; linear regression of at least three concentrations; read-out: IC₅₀.
Consider `CC(C)C[C@H](NC(=O)[C@H](Cc1ccccc1)NC(=O)CCCN1Cc2ccncc2C1=O)C(=O)N[C@@H](CC1CCCCC1)[C@@H](O)CC(=O)NCCCn1ccnc1` [Example E14, 6,7-Dihydro-5H-7-oxo-pyrrolo[3,4-c]pyridine-6-butanoyl-Phe-Leu-ACHPA 3-(1-imidazolyl)propylamide.2HCl], for which the IC50 was 14 nM.
For `CC(C)C[C@H](NC(=O)[C@H](Cc1ccccc1)NC(=O)CCN1C(=O)CSc2ncccc21)C(=O)N[C@@H](CC1CCCCC1)[C@@H](O)CC(=O)NCCCn1ccnc1` [Example E10, 2,3-Dihydro-3-oxo-4H-pyrido[2,3-b]-1,4-thiazine-4-propanoyl-Phe-Leu-ACHPA 3-(1-imidazolyl)propylamide .HCl], the IC50 was found to be 6 nM.
`CC(C)C[C@H](NC(=O)[C@H](Cc1ccccc1)NC(=O)CCN1C(=O)CS(=O)(=O)c2ncccc21)C(=O)N[C@@H](CC1CCCCC1)[C@@H](O)CC(=O)NCCCn1ccnc1` [Example E11, 2,3-Dihydro-1,1,3-trioxo-4H-pyrido[2,3-b]-1,4-thiazine-4-propanoyl-Phe-Leu-ACHPA 3-(1-imidazolyl)propylamide .HCl.1.5H₂O]: the IC50 is 12 nM.
Still for that read-out and setting: the result for `CC(C)C[C@H](NC(=O)[C@H](Cc1ccccc1)NC(=O)CCN1C(=O)COc2cccnc21)C(=O)N[C@@H](CC1CCCCC1)[C@@H](O)CC(=O)NCCCn1ccnc1` [Example E3, 2,3-Dihydro-3-oxo-4H-pyrido[3,2-b]-1,4-oxazine-4-propanoyl-Phe-Leu-ACHPA 3-(1-imidazolyl)propylamide .0.5(CHCl₃)] reads 26 nM; that for `CC(C)C[C@H](NC(=O)[C@H](Cc1ccccc1)NC(=O)CCN1C(=O)CSc2ccncc21)C(=O)N[C@@H](CC1CCCCC1)[C@@H](O)CC(=O)NCCCn1ccnc1` [Example E4, 2,3-Dihydro-3-oxo-4H-pyrido[4,3-b]-1,4-thiazine-4-propanoyl-Phe-Leu-ACHPA 3-(1-imidazolyl)propylamide], 4 nM.
